According to patent US20260176267A1, “PREPARATION OF IMIDAZOPYRIDINE AND IMIDAZOPYRIDAZINE DERIVATIVES AS NOVEL DIACYLGLYCERIDE O-ACYLTRANSFERASE 2 INHIBITORS” (Merck Sharp & Dohme LLC, priority 2022, published 2026):

biological target: T1, human DGAT2 (hDGAT2) (Homo sapiens, UniProt Q96PD7); test: DGAT2 Enzymatic Activity Assay; type: biochemical; settings: membrane prep of Sf-9 cells expressing hDGAT2; 13C18-triolein product by LC/MS/MS; 25 μM diolein, 5 μM 13C oleoyl-CoA, rt
T1 construct: made in house; host or cells: Sf-9 insect cells (baculovirus), membrane fraction
T1 sequence (Q96PD7 1-388): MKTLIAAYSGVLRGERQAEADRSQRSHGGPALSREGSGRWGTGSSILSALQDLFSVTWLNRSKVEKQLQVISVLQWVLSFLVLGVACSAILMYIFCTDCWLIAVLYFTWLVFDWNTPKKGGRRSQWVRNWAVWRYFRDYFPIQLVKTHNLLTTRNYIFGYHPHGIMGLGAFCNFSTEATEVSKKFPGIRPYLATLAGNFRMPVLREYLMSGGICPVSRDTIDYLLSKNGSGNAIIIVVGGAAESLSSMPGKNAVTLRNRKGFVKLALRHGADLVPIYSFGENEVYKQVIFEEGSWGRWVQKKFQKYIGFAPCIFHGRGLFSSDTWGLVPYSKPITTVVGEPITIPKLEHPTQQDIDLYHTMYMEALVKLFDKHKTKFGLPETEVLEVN
In short: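 At room temperature, DGAT2 activity in baculovirus-infected Sf-9 membrane preps (human enzyme, untagged) is measured as formation of ^13C18-triolein. Product is extracted and measured by positive-mode LC/MS/MS, with the ratio to spiked ^13C21-triolein giving inhibition and IC50.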

IC50 [µM] | SMILES
0.0068 | Cc1c(C(=O)NC2(C)CCS(=O)(=O)CC2)nc2ccc(Oc3ncc(Cl)cc3OCC(F)F)nn12 [Example 166, 6-((5-Chloro-3-(2,2-difluoroethoxy)pyridin-2-yl)oxy)-3-methyl-N-(4-methyl-1,1-dioxidotetrahydro-2H-thiopyran-4-yl)imidazo[1,2-b]pyridazine-2-carboxamide]
0.011 | Cc1c(C(=O)NC2(C)CS(=O)(=O)C2)nc2ccc(Oc3ncc(Cl)cc3OCC(F)F)nn12 [Example 167, 6-((5-chloro-3-(2,2-difluoroethoxy)pyridin-2-yl)oxy)-3-methyl-N-(3-methyl-1,1-dioxidothietan-3-yl)imidazo[1,2-b]pyridazine-2-carboxamide]
0.001 | Cc1cc2nc(C(=O)NC3(C)CCS(=O)(=O)CC3)cn2nc1Oc1ncc(Cl)cc1OCC(F)F [Example 168, 6-((5-Chloro-3-(2,2-difluoroethoxy)pyridin-2-yl)oxy)-7-methyl-N-(4-methyl-1,1-dioxidotetrahydro-2H-thiopyran-4-yl)imidazo[1,2-b]pyridazine-2-carboxamide]
0.121 | Cc1cc2nc(C(=O)NC3(C)CS(=O)(=O)C3)cn2nc1Oc1ncc(Cl)cc1OCC(F)F [Example 169, 6-[[5-chloro-3-(2,2-difluoroethoxy)-2-pyridyl]oxy]-7-methyl-N-(3-methyl-1,1-dioxo-thietan-3-yl)imidazo[1,2-b]pyridazine-2-carboxamide]
0.015 | Cc1cc2nc(C(=O)NC3(C)CCS(=O)(=O)CC3)c(C)n2nc1Oc1ncc(F)cc1OCC(F)(F)F [Example 170, 6-[[5-fluoro-3-(2,2,2-trifluoroethoxy)-2-pyridyl]oxy]-3,7-dimethyl-N-(4-methyl-1,1-dioxo-thian-4-yl)imidazo[1,2-b]pyridazine-2-carboxamide]
0.0013 | Cc1cc2nc(C(=O)NC3(C)CCS(=O)(=O)CC3)c(C)n2nc1Oc1ncc(F)cc1OCC(F)F [Example 171, 6-[[3-(2,2-difluoroethoxy)-5-fluoro-2-pyridyl]oxy]-3,7-dimethyl-N-(4-methyl-1,1-dioxo-thian-4-yl)imidazo[1,2-b]pyridazine-2-carboxamide]
0.03 | Cc1cc(Oc2ncc(Cl)cc2OCC(F)F)nn2cc(C(=O)NC3(C)CS(=O)(=O)C3)nc12 [Example 172, 6-[[5-chloro-3-(2,2-difluoroethoxy)-2-pyridyl]oxy]-8-methyl-N-(3-methyl-1,1-dioxo-thietan-3-yl)imidazo[1,2-b]pyridazine-2-carboxamide]
0.011 | Cc1cc(Oc2ncc(Cl)cc2OCC(F)F)nn2cc(C(=O)NC3(C)CCS(=O)(=O)CC3)nc12 [Example 173, 6-[[5-chloro-3-(2,2-difluoroethoxy)-2-pyridyl]oxy]-8-methyl-N-(4-methyl-1,1-dioxo-thian-4-yl)imidazo[1,2-b]pyridazine-2-carboxamide]
0.014 | Cc1cc(Oc2ncc(F)cc2OCC(F)F)nn2cc(C(=O)N[C@H]3CCCC(F)(F)[C@@H]3O)nc12 [Example 174, N-((1S,2R)-3,3-difluoro-2-hydroxycyclohexyl)-6-((3-(2,2-difluoroethoxy)-5-fluoropyridin-2-yl)oxy)-8-methylimidazo[1,2-b]pyridazine-2-carboxamide]
0.0004 | CC1(NC(=O)c2nc3cc(Cl)c(Oc4ncc(Cl)cc4OCC(F)F)nn3c2Cl)CS(=O)(=O)C1 [Example 175, 3,7-dichloro-6-[[5-chloro-3-(2,2-difluoroethoxy)-2-pyridyl]oxy]-N-(3-methyl-1,1-dioxo-thietan-3-yl)imidazo[1,2-b]pyridazine-2-carboxamide]
0.024 | CC1(NC(=O)c2nc3ccc(Oc4ncc(Cl)cc4OCC(F)F)nn3c2Cl)CS(=O)(=O)C1 [Example 176, 3-chloro-6-[[5-chloro-3-(2,2-difluoroethoxy)-2-pyridyl]oxy]-N-(3-methyl-1,1-dioxo-thietan-3-yl)imidazo[1,2-b]pyridazine-2-carboxamide]
